In the experiment the target is mouse TRPM3α2 (mTRPM3) ion channel (Mus musculus (Mouse), UniProt J9SQF3). As to the kind of experiment: TRPM3 ion channel driven Ca2+ uptake, Fluo-4 AM assay, mTRPM3alpha2 overexpressing flip-in HEK293 cells stimulated with pregnenolone sulfate. The experiment is classed as cell-based. Summed up:
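Flip-in HEK293 cells loaded with Fluo-4 AM were added to plates holding compound plus 50 μM pregnenolone sulfate in Ca2+-containing Krebs buffer. Fluorescence (ex 485/em 535 nm) read directly after cell addition; % inhibition relative to PS-stimulated vehicle and positive-control inhibitor.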

[1] abbreviates: PS (50 μM) stimulated, cpds. 400-499.
The mark [2] stands for this setting: PS (50 μM) stimulated, cpds. 500-599.
The mark [3] stands for this setting: PS (50 μM) stimulated, cpd 001-199.
Where [4] appears, read: PS (50 μM) stimulated, cpds. 608-666.

Sequence of mouse TRPM3α2 (mTRPM3) ion channel (J9SQF3 other isoform, or with tags, fused parts or gaps): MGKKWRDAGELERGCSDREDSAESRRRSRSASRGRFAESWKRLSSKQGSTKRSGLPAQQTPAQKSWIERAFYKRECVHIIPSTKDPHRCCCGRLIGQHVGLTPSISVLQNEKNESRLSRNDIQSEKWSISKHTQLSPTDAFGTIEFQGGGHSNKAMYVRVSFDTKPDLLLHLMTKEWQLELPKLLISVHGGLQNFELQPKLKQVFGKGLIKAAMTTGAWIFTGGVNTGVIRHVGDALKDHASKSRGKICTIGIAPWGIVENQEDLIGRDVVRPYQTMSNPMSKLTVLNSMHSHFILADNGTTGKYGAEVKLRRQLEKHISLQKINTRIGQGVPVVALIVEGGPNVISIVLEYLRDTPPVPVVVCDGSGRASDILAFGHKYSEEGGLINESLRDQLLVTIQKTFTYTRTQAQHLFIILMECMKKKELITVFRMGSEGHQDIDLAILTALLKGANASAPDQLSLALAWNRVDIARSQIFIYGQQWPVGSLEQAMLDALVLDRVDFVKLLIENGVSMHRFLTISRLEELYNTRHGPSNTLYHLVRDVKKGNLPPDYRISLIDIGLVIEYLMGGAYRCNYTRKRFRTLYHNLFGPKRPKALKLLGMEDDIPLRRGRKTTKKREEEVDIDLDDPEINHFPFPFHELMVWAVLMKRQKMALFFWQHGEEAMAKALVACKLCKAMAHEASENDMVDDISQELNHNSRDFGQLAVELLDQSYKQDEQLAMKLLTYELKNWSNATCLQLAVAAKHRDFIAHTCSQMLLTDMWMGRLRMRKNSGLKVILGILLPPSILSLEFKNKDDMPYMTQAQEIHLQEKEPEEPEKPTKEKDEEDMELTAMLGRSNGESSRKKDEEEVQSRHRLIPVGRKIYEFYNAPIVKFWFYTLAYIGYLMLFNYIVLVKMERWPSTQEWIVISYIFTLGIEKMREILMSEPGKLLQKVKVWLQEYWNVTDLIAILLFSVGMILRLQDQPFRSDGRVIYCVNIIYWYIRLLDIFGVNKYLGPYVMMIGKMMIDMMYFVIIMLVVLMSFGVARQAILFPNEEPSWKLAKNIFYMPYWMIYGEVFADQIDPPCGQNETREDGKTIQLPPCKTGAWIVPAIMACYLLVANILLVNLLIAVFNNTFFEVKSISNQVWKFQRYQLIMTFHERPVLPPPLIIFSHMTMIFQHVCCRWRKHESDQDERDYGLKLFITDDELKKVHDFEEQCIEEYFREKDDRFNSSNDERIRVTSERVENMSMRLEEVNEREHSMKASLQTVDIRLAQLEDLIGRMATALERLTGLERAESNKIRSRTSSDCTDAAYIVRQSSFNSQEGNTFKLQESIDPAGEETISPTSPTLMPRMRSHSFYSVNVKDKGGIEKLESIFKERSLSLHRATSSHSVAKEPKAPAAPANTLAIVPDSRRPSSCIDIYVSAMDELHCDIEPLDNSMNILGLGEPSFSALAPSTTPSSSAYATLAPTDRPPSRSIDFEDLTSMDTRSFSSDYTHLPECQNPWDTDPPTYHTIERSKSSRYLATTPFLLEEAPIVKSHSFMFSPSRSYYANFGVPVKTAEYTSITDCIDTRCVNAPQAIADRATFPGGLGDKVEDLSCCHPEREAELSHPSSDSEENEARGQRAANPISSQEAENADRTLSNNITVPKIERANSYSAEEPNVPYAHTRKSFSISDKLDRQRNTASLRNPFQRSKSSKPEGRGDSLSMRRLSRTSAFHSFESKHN

Usually IC50 stands for the concentration that gives 50% inhibition. As to `Cc1oc2ccc(OCc3ccc(F)cn3)cc2c1C(=O)NC1(CO)CCOCC1` [compound 359, 5-((5-fluoropyridin-2-yl)methoxy)-N-(4-(hydroxymethyl)tetrahydro-2H-pyran-4-yl)-2-methylbenzofuran-3-carboxamide], the IC50 (PS 50 μM, cpds 300-399) was less than 1 µM.

In turn, `COc1ncccc1COc1ccc2oc(C)c(C(=O)NC3(CO)CCC3)c2c1` [compound 417, N-(1-(hydroxymethyl)cyclobutyl)-5-((2-methoxypyridin-3-yl)methoxy)-2-methylbenzofuran-3-carboxamide] had an IC50 under setting [1] of less than 1 µM.

Take `Cc1ncsc1COc1ccc2oc(C)c(C(=O)NCc3cc[nH]n3)c2c1` [compound 374, N-((1H-pyrazol-3-yl)methyl)-2-methyl-5-((4-methylthiazol-5-yl)methoxy)benzofuran-3-carboxamide]: the IC50 (PS 50 μM, cpds 300-399) is less than 1 µM.

In the case of `Cc1ncc(COc2ccc3oc(C)c(C(=O)N[C@H](CO)CS(C)(=O)=O)c3c2)s1` [compound 274, (R)-N-(1-hydroxy-3-(methylsulfonyl)propan-2-yl)-2-methyl-5-((2-methylthiazol-5-yl)methoxy)benzofuran-3-carboxamide], the IC50 (PS 50 μM, cpds 200-299) was less than 1 µM.

`Cc1oc2ccc(OCC3COC3)cc2c1C(=O)N[C@@H](CO)C(N)=O` [compound 292, (S)-N-(1-amino-3-hydroxy-1-oxopropan-2-yl)-2-methyl-5-(oxetan-3-ylmethoxy)benzofuran-3-carboxamide]: the IC50 (PS 50 μM, cpds 200-299) was less than 1 µM.

Compound `Cc1csc(COc2ccc3oc(C)c(C(=O)NC4CCNCC4(F)F)c3c2)n1` (single isomer, unassigned) [cpd 552-En 1] showed an IC50 under setting [2] of less than 1 µM.

In the case of `Cc1oc2ccc(OCc3cccnc3C(F)(F)F)c(F)c2c1C(=O)NC1CCNCC1(F)F` (single isomer, unassigned) [cpd 112-En 1, N-(3,3-difluoropiperidin-4-yl)-4-fluoro-2-methyl-5-((2-(trifluoromethyl)pyridin-3-yl)methoxy) -benzofuran-3-carboxamide], the IC50 under setting [3] was less than 1 µM.

The compound `Cc1ncc(COc2ccc3oc(C)c(C(=O)NCC4(F)COC4)c3c2)s1` [compound 384, N-((3-fluorooxetan-3-yl)methyl)-2-methyl-5-((2-methylthiazol-5-yl)methoxy)benzofuran-3-carboxamide] had an IC50 (PS 50 μM, cpds 300-399) of less than 1 µM.

`COc1ncccc1COc1ccc2oc(C)c(C(=O)NC3CCNCC3(F)F)c2c1` (single isomer, unassigned) [cpd 565-En 2] registered an IC50 under setting [2] of less than 1 µM.

As to `Cc1ncc(COc2ccc3oc(C)c(C(=O)N[C@H](C(N)=O)[C@@H](C)O)c3c2)o1` [compound 375, N-((2S,3R)-1-amino-3-hydroxy-1-oxobutan-2-yl)-2-methyl-5-((2-methyloxazol-5-yl)methoxy)benzofuran-3-carboxamide], the IC50 (PS 50 μM, cpds 300-399) was less than 1 µM.

The compound `Cc1oc2ccc(OCc3ccccn3)cc2c1C(=O)NC1CCNCC1(F)F` (stereo not shown) [compound 048, N-(3,3-difluoropiperidin-4-yl)-2-methyl-5-(pyridin-2-ylmethoxy)benzofuran-3-carboxamide] returned a half-maximal inhibitory concentration (IC50) under setting [3] of less than 1 µM.

`Cc1ncc(COc2ccc3oc(C)c(C(=O)NC4(CO)CC4)c3c2)s1` [compound 418, N-(1-(hydroxymethyl)cyclopropyl)-2-methyl-5-((2-methylthiazol-5-yl)methoxy)benzofuran-3-carboxamide]: under setting [1], the IC50 was less than 1 µM.

As to `CNC(=O)C1(NC(=O)c2c(C)oc3ccc(OCc4scnc4C)cc23)CCC1` [compound 319, 2-methyl-N-(1-(methylcarbamoyl)cyclobutyl)-5-((4-methylthiazol-5-yl)methoxy)benzofuran-3-carboxamide], for the setting “PS 50 μM, cpds 300-399”, the IC50 is less than 1 µM.

The compound `Cc1oc2ccc(OCc3cccnc3C(F)(F)F)cc2c1C(=O)NC1CCNCC1(F)F` (single isomer, unassigned) [cpd 539-En 1] yielded an IC50 under setting [2] of 1 to 20 µM.

With `Cc1ncc(COc2ccc3oc(C)c(C(=O)NCC(C)(C)F)c3c2)s1` [compound 504, N-(2-fluoro-2-methylpropyl)-2-methyl-5-((2-methylthiazol-5-yl)methoxy)benzofuran-3-carboxamide], the IC50 under setting [2] is less than 1 µM.

`COc1ncccc1COc1ccc2oc(C)c(C(=O)NC(C)(C)C(N)=O)c2c1` [compound 444, N-(1-amino-2-methyl-1-oxopropan-2-yl)-5-((2-methoxypyridin-3-yl)methoxy)-2-methylbenzofuran-3-carboxamide] displayed an IC50 under setting [1] of less than 1 µM.

Consider `Cc1ncsc1COc1ccc2oc(C)c(C(=O)NCC3(F)CC3)c2c1` [compound 373, N-((1-fluorocyclopropyl)methyl)-2-methyl-5-((4-methylthiazol-5-yl)methoxy)benzofuran-3-carboxamide], for which the IC50 (PS 50 μM, cpds 300-399) was less than 1 µM.

With `Cc1ncsc1COc1ccc2oc(C)c(C(=O)NC(C)(CO)CO)c2c1` [compound 426, N-(1,3-dihydroxy-2-methylpropan-2-yl)-2-methyl-5-((4-methylthiazol-5-yl)methoxy)benzofuran-3-carboxamide], the IC50 under setting [1] was less than 1 µM.

`Cc1oc2ccc(OCc3ccnn3CC(F)F)cc2c1C(=O)N[C@@H](CO)C(N)=O` [compound 295, (S)-N-(1-amino-3-hydroxy-1-oxopropan-2-yl)-5-((1-(2,2-difluoroethyl)-1H-pyrazol-5-yl)methoxy)-2-methylbenzofuran-3-carboxamide]: the 50% inhibitory concentration (IC50) (PS 50 μM, cpds 200-299) was less than 1 µM.

On to `Cc1oc2ccc(OCc3cccnc3C(F)(F)F)cc2c1C(=O)NC1(CN(C)C)CCC1` [compound 140, N-(1-((dimethylamino)methyl)cyclobutyl)-2-methyl-5-((2-(trifluoromethyl)pyridin-3-yl)methoxy) -benzofuran-3-carboxamide], for which the IC50 under setting [3] was less than 1 µM.

For `Cc1oc2ccc(OCc3ccnn3C)cc2c1C(=O)NC1(CO)COC1` [compound 524, N-(3-(hydroxymethyl)oxetan-3-yl)-2-methyl-5-((1-methyl-1H-pyrazol-5-yl)methoxy)benzofuran-3-carboxamide], the IC50 under setting [2] was less than 1 µM.

As for `Cc1ncsc1COc1ccc2oc(C)c(C(=O)NC(C)(C)CC(N)=O)c2c1` [compound 649, N-(4-amino-2-methyl-4-oxobutan-2-yl)-2-methyl-5-((4-methylthiazol-5-yl)methoxy)benzofuran-3-carboxamide], under setting [4], the IC50 is less than 1 µM.

The compound `Cc1oc2ccc(OCc3nccn3C)cc2c1C(=O)NC1CNCCC1(F)F` (single isomer, unassigned) [cpd 635-En 1] had an IC50 under setting [4] of less than 1 µM.

For the compound `Cc1oc2ccc(OCc3c(F)cnn3C)cc2c1C(=O)NC1(CO)CCOCC1` [compound 357, 5-((4-fluoro-1-methyl-1H-pyrazol-5-yl)methoxy)-N-(4-(hydroxymethyl)tetrahydro-2H-pyran-4-yl)-2-methylbenzofuran-3-carboxamide], the IC50 (PS 50 μM, cpds 300-399) is less than 1 µM.

Take `Cc1ncsc1COc1ccc2oc(C)c(C(=O)NCCNS(C)(=O)=O)c2c1` [compound 322, 2-methyl-N-(2-(methylsulfonamido)ethyl)-5-((4-methylthiazol-5-yl)methoxy)benzofuran-3-carboxamide]: for the setting “PS 50 μM, cpds 300-399”, the IC50 is less than 1 µM.

`Cc1ncsc1COc1ccc2oc(C)c(C(=O)NC3CCN(CC(F)(F)F)CC3)c2c1` [compound 166, 2-methyl-5-((4-methylthiazol-5-yl)methoxy)-N-(1-(2,2,2-trifluoroethyl)piperidin-4-yl)benzofuran-3-carboxamide]: under setting [3], the IC50 is less than 1 µM.

For the compound `Cc1oc2ccc(OCc3cccnc3O)cc2c1C(=O)NC(C)(C)CO` [compound 485, N-(1-hydroxy-2-methylpropan-2-yl)-5-((2-hydroxypyridin-3-yl)methoxy)-2-methylbenzofuran-3-carboxamide], under setting [1], the IC50 is less than 1 µM.

`Cc1ncsc1COc1ccc2oc(C)c(C(=O)NCC(C)(C)F)c2c1` [compound 505, N-(2-fluoro-2-methylpropyl)-2-methyl-5-((4-methylthiazol-5-yl)methoxy)benzofuran-3-carboxamide] returned an IC50 under setting [2] of less than 1 µM.

Take `Cc1oc2ccc(OCc3cccs3)cc2c1C(=O)NC1CCN(C)CC1` [compound 041, 2-methyl-N-(1-methylpiperidin-4-yl)-5-(thiophen-2-ylmethoxy)benzofuran-3-carboxamide]: under setting [3], the IC50 is less than 1 µM.

As to `Cc1oc2ccc(OCc3cccnc3)cc2c1C(=O)NC1CCNC1=O` (stereo not shown) [compound 027, 2-methyl-N-(2-oxopyrrolidin-3-yl)-5-(pyridin-3-ylmethoxy)benzofuran-3-carboxamide], the IC50 under setting [3] was less than 1 µM.

`Cc1ncsc1COc1ccc2oc(C3CC3)c(C(=O)NC3(CO)CCOCC3)c2c1` [compound 314, 2-cyclopropyl-N-(4-(hydroxymethyl)tetrahydro-2H-pyran-4-yl)-5-((4-methylthiazol-5-yl)methoxy)benzofuran-3-carboxamide] came in with an IC50 (PS 50 μM, cpds 300-399) of less than 1 µM.

Turning to `Cc1ncccc1COc1ccc2oc(C)c(C(=O)N[C@H](C(N)=O)[C@@H](C)O)c2c1` [compound 376, N-((2S,3R)-1-amino-3-hydroxy-1-oxobutan-2-yl)-2-methyl-5-((2-methylpyridin-3-yl)methoxy)benzofuran-3-carboxamide], the IC50 (PS 50 μM, cpds 300-399) is less than 1 µM.

On to `Cc1ncsc1COc1ccc2oc(C)c(C(=O)NC3CNCCC3(F)F)c2c1` (single isomer, unassigned) [cpd 103-En 1], for which the IC50 under setting [3] was less than 1 µM.

Under setting [2], `Cc1ncc(COc2ccc3oc(C)c(C(=O)NC4CCNCC4(F)F)c3c2)s1` (single isomer, unassigned) [cpd 549-En 1] came in with an IC50 of less than 1 µM.

`Cc1oc2ccc(OCc3nccs3)cc2c1C(=O)NC1CCNCC1(F)F` (single isomer, unassigned) [cpd 560-En 2] displayed an IC50 under setting [2] of less than 1 µM.

The compound `Cc1oc2ccc(OCc3cn(C)nn3)cc2c1C(=O)NC1CCNCC1(F)F` (single isomer, unassigned) [cpd 540-En 1] had an IC50 under setting [2] of 1 to 20 µM.

Consider `Cc1ncsc1COc1ccc2oc(C)c(C(=O)NCC(C)(C)C(N)=O)c2c1` [compound 576, N-(3-amino-2,2-dimethyl-3-oxopropyl)-2-methyl-5-((4-methylthiazol-5-yl)methoxy)benzofuran-3-carboxamide], for which the IC50 under setting [2] was less than 1 µM.
